In ChEMBL document CHEMBL4507272 (2021):

Assays:
[1] = test system: Tyrosine-protein kinase ABL1 (Homo sapiens), P00519 [H396P]; details: Compound concentration 1000.0 nM
[2] = molecular target: Mitotic checkpoint serine/threonine-protein kinase BUB1 (Homo sapiens) (UniProt O43683); details: Compound concentration 1000.0 nM
[3] = molecular target: Myotonin-protein kinase (Homo sapiens) (UniProt Q09013); details: Compound concentration 1000.0 nM
[4] = molecular target: Ephrin type-B receptor 6 (Homo sapiens) (UniProt O15197); details: Compound concentration 1000.0 nM
Ephrin type-B receptor 6 (Homo sapiens), sequence (O15197 whole entry): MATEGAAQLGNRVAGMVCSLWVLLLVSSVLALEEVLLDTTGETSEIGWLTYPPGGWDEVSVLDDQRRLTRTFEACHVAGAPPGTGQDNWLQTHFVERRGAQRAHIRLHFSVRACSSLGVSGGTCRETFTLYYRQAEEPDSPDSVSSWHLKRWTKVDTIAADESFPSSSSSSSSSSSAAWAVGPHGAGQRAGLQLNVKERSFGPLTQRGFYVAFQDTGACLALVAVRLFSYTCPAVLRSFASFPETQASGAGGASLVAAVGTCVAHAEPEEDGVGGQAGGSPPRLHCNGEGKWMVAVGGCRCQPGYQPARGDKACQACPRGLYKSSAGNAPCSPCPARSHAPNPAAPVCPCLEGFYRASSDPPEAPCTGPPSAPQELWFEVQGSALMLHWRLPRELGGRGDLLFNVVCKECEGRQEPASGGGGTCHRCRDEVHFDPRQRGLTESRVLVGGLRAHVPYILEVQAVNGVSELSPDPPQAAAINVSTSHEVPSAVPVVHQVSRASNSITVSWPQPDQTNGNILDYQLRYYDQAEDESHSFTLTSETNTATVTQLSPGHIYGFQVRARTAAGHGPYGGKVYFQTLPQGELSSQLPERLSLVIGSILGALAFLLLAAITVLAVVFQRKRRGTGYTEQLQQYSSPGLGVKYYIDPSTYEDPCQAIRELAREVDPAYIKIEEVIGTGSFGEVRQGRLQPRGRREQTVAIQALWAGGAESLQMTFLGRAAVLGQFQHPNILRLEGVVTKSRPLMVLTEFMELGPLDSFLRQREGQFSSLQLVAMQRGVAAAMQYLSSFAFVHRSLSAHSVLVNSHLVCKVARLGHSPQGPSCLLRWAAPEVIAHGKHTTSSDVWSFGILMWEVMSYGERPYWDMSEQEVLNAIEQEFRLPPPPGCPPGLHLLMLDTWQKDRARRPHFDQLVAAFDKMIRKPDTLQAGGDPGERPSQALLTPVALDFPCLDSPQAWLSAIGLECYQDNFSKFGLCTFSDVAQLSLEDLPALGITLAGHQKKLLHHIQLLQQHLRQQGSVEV

[5] = molecular target: Fibroblast growth factor receptor 2 (Homo sapiens) (UniProt P21802); details: Compound concentration 1000.0 nM
[6] = test system: Receptor-type tyrosine-protein kinase FLT3 (Homo sapiens), P36888 [D835H]; details: Compound concentration 1000.0 nM
[7] = molecular target: Serine/threonine-protein kinase STK11 (Homo sapiens) (UniProt Q15831); details: Compound concentration 1000.0 nM
Serine/threonine-protein kinase STK11 (Homo sapiens), sequence (Q15831 whole entry): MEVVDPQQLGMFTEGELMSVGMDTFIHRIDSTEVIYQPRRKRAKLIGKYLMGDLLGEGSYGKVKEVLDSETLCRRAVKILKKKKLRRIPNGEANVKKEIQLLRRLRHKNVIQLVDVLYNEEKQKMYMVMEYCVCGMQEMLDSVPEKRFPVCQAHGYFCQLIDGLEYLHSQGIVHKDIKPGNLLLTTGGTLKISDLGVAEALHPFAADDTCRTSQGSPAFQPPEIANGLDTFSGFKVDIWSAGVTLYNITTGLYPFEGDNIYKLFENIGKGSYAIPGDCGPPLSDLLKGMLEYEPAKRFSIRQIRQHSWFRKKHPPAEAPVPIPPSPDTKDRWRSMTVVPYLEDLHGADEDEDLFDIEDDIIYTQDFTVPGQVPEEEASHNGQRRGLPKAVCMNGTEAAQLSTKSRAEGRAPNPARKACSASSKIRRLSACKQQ

[8] = molecular target: Serine/threonine-protein kinase mTOR (Homo sapiens) (UniProt P42345); details: Compound concentration 1000.0 nM
[9] = molecular target: Serine/threonine-protein kinase pim-2 (Homo sapiens) (UniProt Q9P1W9); details: Compound concentration 1000.0 nM
Serine/threonine-protein kinase pim-2 (Homo sapiens), sequence (Q9P1W9 whole entry, looked up): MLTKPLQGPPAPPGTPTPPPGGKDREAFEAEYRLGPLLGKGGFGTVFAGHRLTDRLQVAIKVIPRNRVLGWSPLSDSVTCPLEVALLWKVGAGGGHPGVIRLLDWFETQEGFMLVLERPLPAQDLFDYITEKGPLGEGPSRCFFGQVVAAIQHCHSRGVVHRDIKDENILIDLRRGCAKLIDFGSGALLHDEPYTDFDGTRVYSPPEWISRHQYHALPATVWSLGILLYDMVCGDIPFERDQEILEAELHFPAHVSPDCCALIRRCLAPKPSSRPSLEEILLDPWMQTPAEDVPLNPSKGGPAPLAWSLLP

[10] = molecular target: Phosphatidylinositol 5-phosphate 4-kinase type-2 beta (Homo sapiens) (UniProt P78356); details: Compound concentration 1000.0 nM
Phosphatidylinositol 5-phosphate 4-kinase type-2 beta (Homo sapiens), sequence (P78356 whole entry): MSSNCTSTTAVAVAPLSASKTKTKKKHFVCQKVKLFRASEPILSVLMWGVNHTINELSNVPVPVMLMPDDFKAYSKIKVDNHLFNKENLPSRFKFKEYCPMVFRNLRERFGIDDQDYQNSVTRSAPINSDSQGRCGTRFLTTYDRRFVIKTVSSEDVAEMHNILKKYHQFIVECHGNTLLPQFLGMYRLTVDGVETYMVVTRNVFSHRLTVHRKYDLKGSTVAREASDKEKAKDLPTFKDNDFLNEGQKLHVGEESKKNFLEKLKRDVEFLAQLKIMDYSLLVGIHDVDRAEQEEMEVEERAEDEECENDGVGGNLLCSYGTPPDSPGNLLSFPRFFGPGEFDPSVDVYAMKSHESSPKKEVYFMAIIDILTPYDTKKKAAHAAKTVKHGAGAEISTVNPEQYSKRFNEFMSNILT

[11] = test system: Proto-oncogene tyrosine-protein kinase receptor Ret (Homo sapiens), P07949 [M918T]; details: Compound concentration 1000.0 nM
[12] = molecular target: SRSF protein kinase 3 (Homo sapiens) (UniProt Q9UPE1); details: Compound concentration 1000.0 nM
[13] = molecular target: Tyrosine-protein kinase SYK (Homo sapiens) (UniProt P43405); details: Compound concentration 1000.0 nM
[14] = molecular target: Tyrosine-protein kinase receptor TYRO3 (Homo sapiens) (UniProt Q06418); details: Compound concentration 1000.0 nM
Tyrosine-protein kinase receptor TYRO3 (Homo sapiens), sequence (Q06418 whole entry): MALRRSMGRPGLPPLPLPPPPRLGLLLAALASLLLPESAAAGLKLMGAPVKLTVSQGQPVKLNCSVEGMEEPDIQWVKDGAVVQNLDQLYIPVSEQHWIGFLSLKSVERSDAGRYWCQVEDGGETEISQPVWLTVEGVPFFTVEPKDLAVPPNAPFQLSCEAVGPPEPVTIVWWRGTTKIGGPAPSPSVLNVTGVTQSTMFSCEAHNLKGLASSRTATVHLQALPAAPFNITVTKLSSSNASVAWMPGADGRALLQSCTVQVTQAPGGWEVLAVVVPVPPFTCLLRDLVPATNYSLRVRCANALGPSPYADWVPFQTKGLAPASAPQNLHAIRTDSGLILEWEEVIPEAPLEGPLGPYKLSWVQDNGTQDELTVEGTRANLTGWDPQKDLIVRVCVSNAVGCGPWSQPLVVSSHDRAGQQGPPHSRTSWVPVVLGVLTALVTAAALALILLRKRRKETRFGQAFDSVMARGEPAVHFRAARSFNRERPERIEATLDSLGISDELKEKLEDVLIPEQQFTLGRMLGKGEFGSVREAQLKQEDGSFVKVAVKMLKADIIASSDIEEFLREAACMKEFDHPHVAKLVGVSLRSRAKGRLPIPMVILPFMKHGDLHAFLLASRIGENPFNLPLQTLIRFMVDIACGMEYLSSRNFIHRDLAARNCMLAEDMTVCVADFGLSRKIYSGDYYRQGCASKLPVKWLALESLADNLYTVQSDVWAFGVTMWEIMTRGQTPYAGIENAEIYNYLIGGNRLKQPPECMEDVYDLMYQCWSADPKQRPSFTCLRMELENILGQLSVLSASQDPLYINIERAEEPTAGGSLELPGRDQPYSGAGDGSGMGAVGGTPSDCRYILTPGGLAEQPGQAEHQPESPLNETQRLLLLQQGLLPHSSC

[15] = molecular target: Phosphatidylinositol 3-kinase catalytic subunit type 3 (Homo sapiens) (UniProt Q8NEB9); details: Compound concentration 1000.0 nM
[16] = molecular target: Tyrosine-protein kinase Yes (Homo sapiens) (UniProt P07947); details: Compound concentration 1000.0 nM
Tyrosine-protein kinase Yes (Homo sapiens), sequence (P07947 2-543 limits assumed): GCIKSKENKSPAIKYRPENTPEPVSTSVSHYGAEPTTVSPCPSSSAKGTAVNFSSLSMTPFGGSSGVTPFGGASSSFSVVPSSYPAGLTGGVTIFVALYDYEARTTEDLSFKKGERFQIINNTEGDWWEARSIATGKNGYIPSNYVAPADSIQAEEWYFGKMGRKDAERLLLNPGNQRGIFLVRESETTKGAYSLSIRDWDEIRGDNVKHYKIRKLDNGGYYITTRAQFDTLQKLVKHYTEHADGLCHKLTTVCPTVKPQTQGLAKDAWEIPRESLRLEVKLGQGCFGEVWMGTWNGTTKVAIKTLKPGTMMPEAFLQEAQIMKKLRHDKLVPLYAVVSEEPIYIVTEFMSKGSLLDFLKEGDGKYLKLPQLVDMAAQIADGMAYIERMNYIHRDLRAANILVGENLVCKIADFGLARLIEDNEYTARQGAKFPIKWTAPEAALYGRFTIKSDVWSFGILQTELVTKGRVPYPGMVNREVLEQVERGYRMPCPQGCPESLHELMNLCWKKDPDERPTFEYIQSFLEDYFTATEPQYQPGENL

[17] = molecular target: Alpha-2B adrenergic receptor (Homo sapiens) (UniProt P18089); details: Compound concentration 10.0 uM
[18] = molecular target: Muscarinic acetylcholine receptor M4 (Homo sapiens) (UniProt P08173); details: Compound concentration 10.0 uM
[19] = molecular target: Beta-3 adrenergic receptor (Homo sapiens) (UniProt P13945); details: Compound concentration 10.0 uM

Mitotic checkpoint serine/threonine-protein kinase BUB1 (Homo sapiens), sequence (O43683 whole entry, looked up): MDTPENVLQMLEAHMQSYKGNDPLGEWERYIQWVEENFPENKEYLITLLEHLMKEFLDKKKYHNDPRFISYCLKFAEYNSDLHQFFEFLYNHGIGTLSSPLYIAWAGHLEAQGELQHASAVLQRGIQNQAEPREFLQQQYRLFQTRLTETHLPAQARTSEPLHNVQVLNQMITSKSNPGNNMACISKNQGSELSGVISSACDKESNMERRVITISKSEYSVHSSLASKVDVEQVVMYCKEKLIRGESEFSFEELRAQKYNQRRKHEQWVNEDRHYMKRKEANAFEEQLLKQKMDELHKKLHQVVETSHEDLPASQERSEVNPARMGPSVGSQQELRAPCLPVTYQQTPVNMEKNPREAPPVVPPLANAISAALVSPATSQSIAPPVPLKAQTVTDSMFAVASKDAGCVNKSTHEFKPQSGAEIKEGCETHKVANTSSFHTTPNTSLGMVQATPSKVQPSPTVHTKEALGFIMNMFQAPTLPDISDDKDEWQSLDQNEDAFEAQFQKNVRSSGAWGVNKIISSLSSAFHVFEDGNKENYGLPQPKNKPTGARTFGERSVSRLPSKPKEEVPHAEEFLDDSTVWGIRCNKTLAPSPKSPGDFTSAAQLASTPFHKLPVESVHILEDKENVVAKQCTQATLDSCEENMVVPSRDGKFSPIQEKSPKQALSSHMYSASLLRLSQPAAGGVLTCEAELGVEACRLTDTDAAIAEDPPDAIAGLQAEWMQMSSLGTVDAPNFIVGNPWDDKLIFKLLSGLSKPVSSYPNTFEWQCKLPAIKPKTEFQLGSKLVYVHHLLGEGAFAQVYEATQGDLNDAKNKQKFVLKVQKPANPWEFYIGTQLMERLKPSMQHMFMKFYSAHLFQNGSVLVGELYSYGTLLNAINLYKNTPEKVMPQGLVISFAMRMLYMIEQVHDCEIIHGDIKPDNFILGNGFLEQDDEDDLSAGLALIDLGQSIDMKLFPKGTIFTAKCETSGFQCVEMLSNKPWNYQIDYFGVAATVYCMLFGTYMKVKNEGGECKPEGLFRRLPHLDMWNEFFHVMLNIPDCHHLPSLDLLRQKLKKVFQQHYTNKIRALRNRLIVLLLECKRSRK

CC(=O)C1=C(C)N(c2cccc(C(F)(F)F)c2)C(=O)N[C@@H]1c1ccc(C#N)nc1 [BAY-678]
inactive: residual activity [1] 87.1% | residual activity [2] 100% | residual activity [3] 86.5% | residual activity [4] 85% | residual activity [5] 100% | residual activity [6] 100% | residual activity [7] 72.8% | residual activity [8] 92.5% | residual activity [9] 98.2% | residual activity [10] 52.8% | residual activity [11] 100% | residual activity [12] 100% | residual activity [13] 100% | residual activity [14] 66.9% | residual activity [15] 100% | residual activity [16] 81.1% | inhibition [17] -1.73% | inhibition [18] -6.72% | inhibition [19] -0.551%
